Test results as given in ChEMBL document CHEMBL1143499, “Fused pyrimidine based inhibitors of phosphodiesterase 7 (PDE7): synthesis and initial structure-activity relationships” (Bioorg Med Chem Lett, 2005).

Key:
[1] = Relative binding to Phosphodiesterase 2 and Phosphodiesterase 7, ratio of IC50
[2] = Relative binding to Phosphodiesterase 3 and Phosphodiesterase 7, ratio of IC50
[3] = Inhibition of Phosphodiesterase 7
[4] = Relative binding to Phosphodiesterase 5 and Phosphodiesterase 7, ratio of IC50
[5] = Relative binding to Phosphodiesterase 1 and Phosphodiesterase 7, ratio of IC50
[6] = Relative binding to Phosphodiesterase 4 and Phosphodiesterase 7, ratio of IC50
[7] = molecular target: cGMP-dependent 3',5'-cyclic phosphodiesterase (Homo sapiens, UniProt O00408); test: Inhibition of Phosphodiesterase 2
Phosphodiesterase 3 = Phosphodiesterase 3 (Homo sapiens, UniProt Q14432+Q13370); test: Inhibition of Phosphodiesterase 3; format: protein assay
[8] = Inhibition of Phosphodiesterase 1
[9] = Inhibition of Phosphodiesterase 5
[10] = Inhibition of Phosphodiesterase 4

cGMP-dependent 3',5'-cyclic phosphodiesterase, sequence (O00408 whole entry): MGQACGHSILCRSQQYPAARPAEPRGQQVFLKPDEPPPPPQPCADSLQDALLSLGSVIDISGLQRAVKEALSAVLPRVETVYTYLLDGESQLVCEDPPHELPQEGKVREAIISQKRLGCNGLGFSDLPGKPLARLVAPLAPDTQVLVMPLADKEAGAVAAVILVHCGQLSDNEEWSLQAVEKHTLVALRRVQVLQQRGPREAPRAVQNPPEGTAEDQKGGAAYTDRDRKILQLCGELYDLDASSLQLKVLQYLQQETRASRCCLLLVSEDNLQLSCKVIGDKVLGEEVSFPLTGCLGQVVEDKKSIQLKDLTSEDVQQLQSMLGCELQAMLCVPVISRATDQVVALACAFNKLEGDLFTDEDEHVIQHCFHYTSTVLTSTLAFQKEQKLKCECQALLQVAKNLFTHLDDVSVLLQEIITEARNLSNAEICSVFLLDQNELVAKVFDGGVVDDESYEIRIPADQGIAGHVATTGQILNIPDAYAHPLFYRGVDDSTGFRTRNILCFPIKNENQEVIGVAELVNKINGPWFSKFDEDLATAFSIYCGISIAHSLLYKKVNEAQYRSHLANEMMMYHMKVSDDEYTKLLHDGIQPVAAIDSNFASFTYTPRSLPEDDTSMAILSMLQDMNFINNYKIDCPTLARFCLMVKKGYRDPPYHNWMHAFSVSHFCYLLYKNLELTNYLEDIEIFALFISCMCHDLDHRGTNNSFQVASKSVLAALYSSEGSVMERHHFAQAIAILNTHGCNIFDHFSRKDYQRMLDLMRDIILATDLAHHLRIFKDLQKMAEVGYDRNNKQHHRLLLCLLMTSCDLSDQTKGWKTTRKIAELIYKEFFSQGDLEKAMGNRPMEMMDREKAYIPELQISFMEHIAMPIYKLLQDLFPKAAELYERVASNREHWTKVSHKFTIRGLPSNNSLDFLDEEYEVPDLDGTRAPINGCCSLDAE

Compound	Ratio [1]	Ratio [2]	IC50 [3]	Ratio [4]	Ratio [5]	Ratio [6]	IC50 [7]	IC50 (Phosphodiesterase 3)	IC50 [8]	IC50 [9]	IC50 [10]
CCOC(=O)c1sc(Nc2nc(N3CCNCC3)c3c(n2)N(Cc2cc(OC)c(OC)c(OC)c2)CCO3)nc1C		3850	5 nM	1240	1170	1200					
CCOC(=O)c1sc(Nc2nc(N3CCN(C)CC3)c3c(n2)N(Cc2cc(OC)c(OC)c(OC)c2)CCO3)nc1C		206	70 nM	64	64	67					
COc1ccc(C2CNC(=O)C2)cc1OC1CCCC1 (stereo not given) [ROLIPRAM]			> 10000 nM				> 10000 nM	> 10000 nM	> 10000 nM	> 10000 nM	740 nM
CCCc1nn(C)c2c(=O)[nH]c(-c3cc(S(=O)(=O)N4CCN(C)CC4)ccc3OCC)nc12			> 10000 nM						> 10000 nM	11 nM	4600 nM
CCOC(=O)c1sc(Nc2nc(NC)c3c(n2)N(Cc2ccc(S(C)(=O)=O)cc2)CC3)nc1C			340 nM			6					
CCOC(=O)c1sc(Nc2nc(NCc3ccc(OC)c(OC)c3)c3c(ncn3CC)n2)nc1C	11	3.8	150 nM	1.8	1.5	7.3	1700 nM	580 nM	220 nM	270 nM	
CCOC(=O)c1sc(Nc2nc(N3CCNCC3)c3c(n2)N(Cc2cc(OC)c(OC)c(OC)c2)CCC3)nc1C	114	734	30 nM	182	166	105					
CCOC(=O)c1sc(Nc2nc(NCc3ccc(S(N)(=O)=O)cc3)c3c(ncn3CC)n2)nc1C			11 nM				950 nM	2970 nM	950 nM	11 nM	550 nM
CCOC(=O)c1sc(Nc2nc(NC)c3ncn(Cc4ccc(S(C)(=O)=O)cc4)c3n2)nc1C		259	90 nM	8	556	3		23300 nM	50000 nM	720 nM	270 nM

Other lines, results leading:

Ratio [1]	Ratio [2]	IC50 [3]	Ratio [4]	Ratio [5]	Ratio [6]	IC50 [7]	IC50 (Phosphodiesterase 3)	IC50 [8]	IC50 [9]	IC50 [10]	Compound
33	390	100 nM	13	162	35						CCOC(=O)c1sc(Nc2nc(N3CCNCC3)c3c(n2)N(Cc2cccnc2)CCC3)nc1C
	1880	6 nM	362	576	795						CCOC(=O)c1sc(Nc2nc(N3CCNCC3)c3c(n2)N(Cc2cc(OC)c(OC)c(OC)c2)CC3)nc1C
	1030	20 nM	1	352	94						CCOC(=O)c1sc(Nc2nc(N3CCNCC3)c3c(n2)N(Cc2ccc(S(C)(=O)=O)cc2)CC3)nc1C
27	392	60 nM	8	157	54						CCOC(=O)c1sc(Nc2nc(N3CCNCC3)c3c(n2)N(Cc2ccc(S(C)(=O)=O)cc2)CCC3)nc1C
	315	20 nM	104	156	189						CCOC(=O)c1sc(Nc2nc(N3CCN(C)CC3)c3c(n2)N(Cc2cc(OC)c(OC)c(OC)c2)CC3)nc1C
	154	150 nM	7	35	13						CCOC(=O)c1sc(Nc2nc(N3CCN(O)CC3)c3c(n2)N(Cc2ccccn2)CC3)nc1C
	174	150 nM	9	39	27						CCOC(=O)c1sc(Nc2nc(N3CCN(C)CC3)c3c(n2)N(Cc2cc(OC)c(OC)c(OC)c2)CCC3)nc1C
